Structures are written as SMILES.

In assay [1] the target is T1, Thromboxane-A synthase (Homo sapiens, UniProt P24557).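 Also: enzyme inhibition assay with PGH2 supplied as substrate; in other assays of this panel Not Active means under 50% inhibition at 10 µM.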
T1 sequence (P24557 whole entry): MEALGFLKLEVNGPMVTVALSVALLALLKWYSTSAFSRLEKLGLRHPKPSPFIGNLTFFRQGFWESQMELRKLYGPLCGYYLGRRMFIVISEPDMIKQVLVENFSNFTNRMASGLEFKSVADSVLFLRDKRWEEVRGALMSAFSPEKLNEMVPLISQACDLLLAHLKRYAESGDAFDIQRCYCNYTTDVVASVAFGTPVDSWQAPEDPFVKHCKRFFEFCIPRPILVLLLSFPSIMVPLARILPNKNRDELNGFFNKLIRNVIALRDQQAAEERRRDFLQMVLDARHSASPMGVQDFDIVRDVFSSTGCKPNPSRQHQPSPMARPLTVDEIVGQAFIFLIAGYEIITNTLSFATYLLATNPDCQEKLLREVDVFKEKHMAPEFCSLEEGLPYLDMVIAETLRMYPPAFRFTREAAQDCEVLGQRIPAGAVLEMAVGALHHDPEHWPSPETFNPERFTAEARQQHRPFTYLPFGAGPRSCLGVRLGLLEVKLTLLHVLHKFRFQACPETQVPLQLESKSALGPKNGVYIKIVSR
Description: biochemical. It counts as tissue-based, Platelet. The following applies: platelet.

Assay [2] has as its target D(1A) dopamine receptor (Homo sapiens, UniProt P21728). Kind of assay: DRUGMATRIX: Dopamine D1 radioligand binding (ligand: [3H] SCH-23390). In kind it is cell membranes, Membrane. To be noted: cho; Not Active = under 50% inhibition at 10 µM.
Assay [3] has as its target D(3) dopamine receptor (Homo sapiens, UniProt P35462). Kind of assay: DRUGMATRIX: Dopamine D3 radioligand binding (ligand: [3H] Spiperone). The following applies: cho. It counts as cell membranes, CHO, Membrane.
The target of assay [4] is Sodium-dependent dopamine transporter (Homo sapiens, UniProt Q01959). Description: DRUGMATRIX: Dopamine Transporter radioligand binding (ligand: [125I] RTI-55). In kind it is cell membranes, CHO-K1, Membrane. The following applies: cho-k1; Not Active = under 50% inhibition at 10 µM.
Assay [5] addresses T2, Leukotriene C4 synthase (Cavia porcellus, UniProt A6XA80).
T2 sequence (A6XA80 whole entry): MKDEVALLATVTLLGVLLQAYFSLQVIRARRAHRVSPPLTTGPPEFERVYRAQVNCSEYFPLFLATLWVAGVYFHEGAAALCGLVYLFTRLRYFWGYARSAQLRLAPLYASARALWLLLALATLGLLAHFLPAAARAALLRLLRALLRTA
In kind it is tissue-based, Lung.

For assay [6], the target named is Mitogen-activated protein kinase 1 (Homo sapiens, UniProt P28482). Description: DRUGMATRIX: Protein Serine/Threonine Kinase, ERK2 enzyme inhibition (substrate: Myelin Basic Protein). Further details: species or system Escherichia coli. To be noted: Not Active = under 50% inhibition at 10 µM.
The target of assay [7] is T3, Glucocorticoid receptor (Homo sapiens, UniProt P04150). Also: in other assays of this panel Not Active means under 50% inhibition at 10 µM.
T3 sequence (P04150 whole entry): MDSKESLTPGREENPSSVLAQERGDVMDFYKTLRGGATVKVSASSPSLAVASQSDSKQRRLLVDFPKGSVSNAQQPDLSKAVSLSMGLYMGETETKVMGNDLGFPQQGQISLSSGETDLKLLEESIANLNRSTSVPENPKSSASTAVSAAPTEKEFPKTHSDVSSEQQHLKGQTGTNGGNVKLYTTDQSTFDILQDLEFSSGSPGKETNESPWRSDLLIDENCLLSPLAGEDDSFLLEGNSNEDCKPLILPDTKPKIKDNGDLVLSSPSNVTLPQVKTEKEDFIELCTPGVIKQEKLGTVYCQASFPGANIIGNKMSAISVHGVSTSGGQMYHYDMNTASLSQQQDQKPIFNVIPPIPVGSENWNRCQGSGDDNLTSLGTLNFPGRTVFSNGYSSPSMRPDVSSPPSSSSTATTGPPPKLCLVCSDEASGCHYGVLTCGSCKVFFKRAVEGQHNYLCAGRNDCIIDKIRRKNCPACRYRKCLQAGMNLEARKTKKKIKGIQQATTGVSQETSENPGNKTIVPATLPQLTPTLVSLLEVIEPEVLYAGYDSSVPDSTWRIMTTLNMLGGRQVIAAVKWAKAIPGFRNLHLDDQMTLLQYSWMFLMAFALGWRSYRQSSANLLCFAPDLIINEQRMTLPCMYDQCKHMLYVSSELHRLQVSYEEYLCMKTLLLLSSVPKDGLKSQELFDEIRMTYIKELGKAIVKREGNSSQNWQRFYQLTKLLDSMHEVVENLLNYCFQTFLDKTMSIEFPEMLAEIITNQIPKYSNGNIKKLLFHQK
To be noted: hela s3.

Sequence of Mitogen-activated protein kinase 1 (P28482 whole entry): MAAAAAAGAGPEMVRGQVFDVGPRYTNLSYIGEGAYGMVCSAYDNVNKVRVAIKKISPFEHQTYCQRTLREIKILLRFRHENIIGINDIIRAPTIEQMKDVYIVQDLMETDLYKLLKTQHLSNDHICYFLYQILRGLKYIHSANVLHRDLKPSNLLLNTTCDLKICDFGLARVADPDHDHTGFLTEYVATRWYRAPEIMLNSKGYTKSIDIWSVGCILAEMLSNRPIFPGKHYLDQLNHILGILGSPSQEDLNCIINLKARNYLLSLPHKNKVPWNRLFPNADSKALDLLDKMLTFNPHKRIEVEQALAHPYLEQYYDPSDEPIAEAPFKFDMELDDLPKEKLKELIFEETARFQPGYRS
Sequence of D(3) dopamine receptor (P35462 whole entry): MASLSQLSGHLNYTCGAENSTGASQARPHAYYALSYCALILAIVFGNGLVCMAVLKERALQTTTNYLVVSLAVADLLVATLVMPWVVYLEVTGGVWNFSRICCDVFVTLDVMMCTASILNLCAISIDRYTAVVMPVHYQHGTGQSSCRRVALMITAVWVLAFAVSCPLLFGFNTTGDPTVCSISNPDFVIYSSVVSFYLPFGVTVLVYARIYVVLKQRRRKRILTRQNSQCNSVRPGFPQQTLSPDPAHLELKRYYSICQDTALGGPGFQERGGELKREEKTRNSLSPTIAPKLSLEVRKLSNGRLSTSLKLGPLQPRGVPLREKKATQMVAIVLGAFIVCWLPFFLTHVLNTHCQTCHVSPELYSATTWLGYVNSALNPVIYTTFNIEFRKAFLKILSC
Sequence of D(1A) dopamine receptor (P21728 whole entry): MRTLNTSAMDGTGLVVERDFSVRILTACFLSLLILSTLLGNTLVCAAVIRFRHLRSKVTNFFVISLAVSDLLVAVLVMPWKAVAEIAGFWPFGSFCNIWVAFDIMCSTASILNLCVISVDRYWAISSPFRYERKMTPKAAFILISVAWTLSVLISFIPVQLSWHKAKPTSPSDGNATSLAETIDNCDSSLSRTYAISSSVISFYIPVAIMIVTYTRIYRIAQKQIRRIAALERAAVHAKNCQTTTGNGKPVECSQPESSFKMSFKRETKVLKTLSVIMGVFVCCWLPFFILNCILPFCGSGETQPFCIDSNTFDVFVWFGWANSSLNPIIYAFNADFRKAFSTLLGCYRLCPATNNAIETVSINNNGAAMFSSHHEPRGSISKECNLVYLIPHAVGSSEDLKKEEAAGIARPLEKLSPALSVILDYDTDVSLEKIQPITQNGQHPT
Sequence of Sodium-dependent dopamine transporter (Q01959 whole entry): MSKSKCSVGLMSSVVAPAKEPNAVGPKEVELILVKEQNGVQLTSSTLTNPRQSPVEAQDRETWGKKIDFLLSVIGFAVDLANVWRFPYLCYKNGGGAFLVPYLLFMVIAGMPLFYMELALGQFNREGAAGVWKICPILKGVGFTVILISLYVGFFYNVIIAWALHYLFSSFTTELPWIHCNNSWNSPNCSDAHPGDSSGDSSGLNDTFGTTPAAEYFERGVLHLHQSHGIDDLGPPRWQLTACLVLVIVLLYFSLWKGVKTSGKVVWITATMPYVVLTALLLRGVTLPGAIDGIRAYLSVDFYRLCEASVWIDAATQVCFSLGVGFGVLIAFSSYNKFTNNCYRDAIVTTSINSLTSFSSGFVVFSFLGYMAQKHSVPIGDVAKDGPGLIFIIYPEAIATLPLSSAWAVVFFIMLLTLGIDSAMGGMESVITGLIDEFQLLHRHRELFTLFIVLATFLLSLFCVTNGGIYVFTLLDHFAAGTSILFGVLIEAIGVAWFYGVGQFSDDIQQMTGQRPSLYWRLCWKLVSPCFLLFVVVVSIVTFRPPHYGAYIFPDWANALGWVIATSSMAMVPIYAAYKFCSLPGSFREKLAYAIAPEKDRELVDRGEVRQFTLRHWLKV

A word on the IC50: it is the point on the concentration scale where inhibition reaches its midpoint. For the compound `O=S(=O)([O-])CCS.[Na+]` [MESNA], the IC50 entry in assay [1], in assay [2], in assay [3], in assay [4], in assay [5] and in assay [6] was “Not Active” each time. Besides, the IC50 result in assay [7] is “Not Active”.

With `C#C[C@]1(O)CC[C@H]2[C@@H]3CCc4cc(OC)ccc4[C@H]3CC[C@@]21C` [MESTRANOL], the IC50 result in assay [1], in assay [2], in assay [3], in assay [4], in assay [5] and in assay [6] was “Not Active” each time. Further, the IC50 result in assay [7] is “Not Active”.

For the compound `CC(C)(C(=O)c1cccnc1)c1cccnc1` [METYRAPONE], the IC50 result in assay [1], in assay [2], in assay [3], in assay [4], in assay [5] and in assay [6] was “Not Active” in each case. In assay [7], the IC50 entry is “Not Active”.

Take `Oc1ccc(OCc2ccccc2)cc1` [MONOBENZONE]: the 50% inhibitory concentration (IC50) result in assay [1], in assay [2], in assay [3], in assay [4], in assay [5] and in assay [6] was “Not Active” each time. In addition, the IC50 result in assay [7] is listed as “Not Active”.

For `CC(C)(Oc1ccc(C2CCCc3ccccc32)cc1)C(=O)O` (centres undefined) [NAFENOPIN], the concentration for half-maximal inhibition (IC50) entry in assay [1] is “Not Active”; in assay [2], “Not Active”; in assay [3], “Not Active”; in assay [4], “Not Active”; in assay [5] it was “Not Active”; in assay [6] (read-out: IC50) it was 815 nM. In addition, in assay [7], the IC50 entry is “Not Active”.

On to `CC(C)[C@H]1CC[C@H](C(=O)N[C@H](Cc2ccccc2)C(=O)O)CC1` [NATEGLINIDE], for which the half-inhibitory concentration (IC50) entry in assay [1], in assay [2], in assay [3], in assay [4], in assay [5] and in assay [6] was “Not Active” throughout. In addition, the half-maximal inhibitory concentration (IC50) entry in assay [7] is on record as “Not Active”.

As to `COC(=O)C1=C(C)NC(C)=C(C(=O)OCC(C)C)C1c1ccccc1[N+](=O)[O-]` (centres undefined) [NISOLDIPINE], the half-inhibitory concentration (IC50) result in assay [1], in assay [2], in assay [3], in assay [4], in assay [5] and in assay [6] was “Not Active” in each case. The IC50 entry in assay [7] is on record as “Not Active”.

With `Cc1nccn1CC1CCc2c(c3ccccc3n2C)C1=O` (centres undefined) [ONDANSETRON], the IC50 result in assay [1], in assay [2], in assay [3], in assay [4], in assay [5] and in assay [6] was “Not Active” each time. In assay [7], the IC50 entry is listed as “Not Active”.

For the compound `CCn1cc(C(=O)O)c(=O)c2cc(F)c(N3CCN(C)CC3)cc21` [PEFLOXACIN], the IC50 result in assay [1], in assay [2], in assay [3], in assay [4], in assay [5] and in assay [6] was “Not Active” in each case. For the same compound, the IC50 entry in assay [7] was “Not Active”.

On to `O=C(C1CCCCC1)N1CC(=O)N2CCc3ccccc3C2C1` (centres undefined) [PRAZIQUANTEL], for which the IC50 entry in assay [1], in assay [2], in assay [3], in assay [4], in assay [5] and in assay [6] was “Not Active” throughout. For the same compound, the IC50 result in assay [7] was “Not Active”.

On to `CCCN(CCC)C(=O)C(CCC(=O)O)NC(=O)c1ccccc1` (centres undefined) [PROGLUMIDE], for which the IC50 result in assay [1], in assay [2], in assay [3], in assay [4], in assay [5] and in assay [6] was “Not Active” throughout. In assay [7], the IC50 result is reported as “Not Active”.

Regarding `NC(=O)c1cnccn1` [PYRAZINAMIDE], the 50% inhibitory concentration (IC50) entry in assay [1], in assay [2], in assay [3], in assay [4], in assay [5] and in assay [6] was “Not Active” throughout. In addition, in assay [7], the concentration for half-maximal inhibition (IC50) result is “Not Active”.

The values are drawn from ChEMBL document CHEMBL1909046, “DrugMatrix in vitro pharmacology data”.
